Species on record: Rattus norvegicus
Assay: Open TG-GATES - Regimen: Single
Assay type: toxicity, organism-based, Sprague-Dawley
Design: regimen Single, gender Male, age 6 weeks
Details: in vivo, po, 0 mg/kg, route gavage, dose level Control; for APTT / Bas / Eos / Fbg / Hb / Ht / Lym / MCHC / MCV / Mono / Neu / PT / Plat / RBC / Ret / WBC: tissue Blood; for KIDNEY_L / KIDNEY_R / KIDNEY_TOTAL: tissue Kidney; for LIVER: tissue Liver; for ALP / ALT / AST / BUN / CRE / Ca / Cl / DBIL / GLC / IP / K / LDH / Na / PL / RALB / TBIL / TC / TG / TP / gamma-GTP: tissue Plasma

CS(=O)(=O)Nc1ccc([N+](=O)[O-])cc1Oc1ccccc1 [NIMESULIDE]
TERMINAL_BW (3 h): 201.3 g
APTT (3 h): 17.1 s
Bas (3 h): 0%
Eos (3 h): 1.4%
Fbg (3 h): 212 mg/dL
Hb (3 h): 14.1 g/dL
Ht (3 h): 41.1%
Lym (3 h): 77%
MCHC (3 h): 34.3%
MCV (3 h): 64.2 fL
Mono (3 h): 6.2%
Neu (3 h): 15.6%
PT (3 h): 12.4 s
Plat (3 h): 118.2 x10_4/uL
RBC (3 h): 640.8 x10_4/ul
Ret (3 h): 10.6%
WBC (3 h): 89.8 x10_2/uL
KIDNEY_L (3 h): 0.9 g
KIDNEY_R (3 h): 0.9 g
KIDNEY_TOTAL (3 h): 1.9 g
LIVER (3 h): 9.7 g
ALP (3 h): 917.4 IU/L
ALT (3 h): 37.4 IU/L
AST (3 h): 63.4 IU/L
BUN (3 h): 12.4 mg/dL
CRE (3 h): 0.5 mg/dL
Ca (3 h): 11 mg/dL
Cl (3 h): 105.4 meq/L
DBIL (3 h): 0.048 mg/dL
GLC (3 h): 197.2 mg/dL
IP (3 h): 9.6 mg/dL
K (3 h): 4.8 meq/L
LDH (3 h): 65.8 IU/L
Na (3 h): 141.8 meq/L
PL (3 h): 133.6 mg/dL
RALB (3 h): 3.7 g/dL
TBIL (3 h): 0.3 mg/dL
TC (3 h): 75 mg/dL
TG (3 h): 57.4 mg/dL
TP (3 h): 5.3 g/dL
gamma-GTP (3 h): 1.6 IU/L
TERMINAL_BW (6 h): 196.6 g
APTT (6 h): 17.7 s
Bas (6 h): 0%
Eos (6 h): 1%
Fbg (6 h): 209.6 mg/dL
Hb (6 h): 13.6 g/dL
Ht (6 h): 40.3%
Lym (6 h): 72.6%
MCHC (6 h): 33.7%
MCV (6 h): 65.3 fL
Mono (6 h): 7.8%
Neu (6 h): 19%
PT (6 h): 12.5 s
Plat (6 h): 116.9 x10_4/uL
RBC (6 h): 617.4 x10_4/ul
Ret (6 h): 11.4%
WBC (6 h): 109.3 x10_2/uL
KIDNEY_L (6 h): 0.8 g
KIDNEY_R (6 h): 0.9 g
KIDNEY_TOTAL (6 h): 1.7 g
LIVER (6 h): 8.5 g
ALP (6 h): 832.8 IU/L
ALT (6 h): 35.8 IU/L
AST (6 h): 63.2 IU/L
BUN (6 h): 12.4 mg/dL
CRE (6 h): 0.6 mg/dL
Ca (6 h): 10.7 mg/dL
Cl (6 h): 105.6 meq/L
DBIL (6 h): 0.062 mg/dL
GLC (6 h): 188 mg/dL
IP (6 h): 10.2 mg/dL
K (6 h): 4.9 meq/L
LDH (6 h): 62.6 IU/L
Na (6 h): 140.4 meq/L
PL (6 h): 139.6 mg/dL
RALB (6 h): 3.7 g/dL
TBIL (6 h): 0.4 mg/dL
TC (6 h): 83.2 mg/dL
TG (6 h): 52.8 mg/dL
TP (6 h): 5.2 g/dL
gamma-GTP (6 h): 2 IU/L
TERMINAL_BW (9 h): 196.3 g
APTT (9 h): 17.5 s
Bas (9 h): 0%
Eos (9 h): 1%
Fbg (9 h): 204.8 mg/dL
Hb (9 h): 13.4 g/dL
Ht (9 h): 39.5%
Lym (9 h): 71.6%
MCHC (9 h): 33.9%
MCV (9 h): 64.3 fL
Mono (9 h): 9%
Neu (9 h): 18.6%
PT (9 h): 12.4 s
Plat (9 h): 110.8 x10_4/uL
RBC (9 h): 614 x10_4/ul
Ret (9 h): 10.8%
WBC (9 h): 94 x10_2/uL
KIDNEY_L (9 h): 0.9 g
KIDNEY_R (9 h): 1 g
KIDNEY_TOTAL (9 h): 1.9 g
LIVER (9 h): 8.3 g
ALP (9 h): 898.6 IU/L
ALT (9 h): 31.4 IU/L
AST (9 h): 59.8 IU/L
BUN (9 h): 12.4 mg/dL
CRE (9 h): 0.5 mg/dL
Ca (9 h): 10.6 mg/dL
Cl (9 h): 106 meq/L
DBIL (9 h): 0.028 mg/dL
GLC (9 h): 193.6 mg/dL
IP (9 h): 10.3 mg/dL
K (9 h): 5 meq/L
LDH (9 h): 79.2 IU/L
Na (9 h): 138.4 meq/L
PL (9 h): 128.4 mg/dL
RALB (9 h): 4 g/dL
TBIL (9 h): 0.3 mg/dL
TC (9 h): 70.8 mg/dL
TG (9 h): 47.6 mg/dL
TP (9 h): 5.3 g/dL
gamma-GTP (9 h): 1.2 IU/L
TERMINAL_BW (24 h): 217.2 g
APTT (24 h): 16.3 s
Bas (24 h): 0%
Eos (24 h): 1%
Fbg (24 h): 201 mg/dL
Hb (24 h): 13.1 g/dL
Ht (24 h): 38.9%
Lym (24 h): 71.6%
MCHC (24 h): 33.7%
MCV (24 h): 66 fL
Mono (24 h): 10.8%
Neu (24 h): 16.6%
PT (24 h): 11.7 s
Plat (24 h): 118.1 x10_4/uL
RBC (24 h): 590.2 x10_4/ul
Ret (24 h): 10.9%
WBC (24 h): 107.9 x10_2/uL
KIDNEY_L (24 h): 1 g
KIDNEY_R (24 h): 1 g
KIDNEY_TOTAL (24 h): 1.9 g
LIVER (24 h): 10.4 g
ALP (24 h): 1023 IU/L
ALT (24 h): 35 IU/L
AST (24 h): 62.8 IU/L
BUN (24 h): 18.4 mg/dL
CRE (24 h): 0.5 mg/dL
Ca (24 h): 10.7 mg/dL
Cl (24 h): 104.4 meq/L
DBIL (24 h): 0.012 mg/dL
GLC (24 h): 190.4 mg/dL
IP (24 h): 7.8 mg/dL
K (24 h): 4.9 meq/L
LDH (24 h): 81.4 IU/L
Na (24 h): 139.6 meq/L
PL (24 h): 150.8 mg/dL
RALB (24 h): 4.1 g/dL
TBIL (24 h): 0.3 mg/dL
TC (24 h): 79.8 mg/dL
TG (24 h): 86.8 mg/dL
TP (24 h): 5.5 g/dL
gamma-GTP (24 h): 1.8 IU/L

Reference: ChEMBL document CHEMBL3885861, “Open TG-GATES”
